Experiment [1] concerns phospho-ERK in SW620 (KRAS-G12V) cells. In words: pERK In Cell Western (ICW) assay (Method B), SW620. It is filed as cell-based. Conditions: Homo sapiens, SW-620, 3 h, Table 4. An outline of the steps:
(§1)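 Cells were seeded at 5,000/well (AGS) or 10,000/well (GP2D, SW620), grown overnight, then treated 3 h at 37 °C with a ½-log 9-point compound dilution. Fixed cells were stained for phospho-ERK with DRAQ5 as DNA counterstain; pERK/DRAQ5 ratio as percent of blank control gave IC50 by 4-parameter fit.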

Experiment [2] has as its target GST-tagged KRAS-G12V (2-169) (Homo sapiens, UniProt P01116, G12V). In words: Nucleotide exchange assay (NEA), SOS-mediated, HTRF, KRAS G12V. It is filed as biochemical. The conditions noted are these: Table 4; IC50 extracted at 90 min; 80 nM SOS. An outline of the steps: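 GST-KRAS-G12V (2-169), 0.25 nM, pre-incubated 1 h at RT with compound, then SOS1cat (564-1049) 80 nM and GTP-DY-647P1 150 nM added in HEPES pH 7.3 buffer with MgCl2 and DTT. HTRF via anti-GST Tb cryptate read over 90 min; IC50 from 4-parameter fit at 90 min, blanked to no-SOS reactions.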
For orientation: In TR-FRET formats the signal depends on donor and acceptor labels being close together.

In experiment [3] the target is GST-tagged KRAS-G12D (2-169) (Homo sapiens, UniProt P01116, G12D). The experiment is described as follows: Nucleotide exchange assay (NEA), SOS-mediated, HTRF, KRAS G12D. It is filed as biochemical. The conditions noted are these: Table 4; IC50 extracted at 30 min; 20 nM SOScat; read-out: NEA G12D IC50. Summed up:
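Compound preincubated 1 h at RT with 0.25 nM GST-KRAS-G12D (2-169) and anti-GST Tb donor, then 20 nM SOS1cat (564-1049) and 150 nM GTP-DY-647P1 added; pH 7.3 HEPES buffer with MgCl2 and DTT. HTRF monitored at RT; % inhibition versus DMSO and no-SOS blank, 4-parameter IC50 taken at 30 min.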

The test system of experiment [4] is phospho-ERK in GP2D (KRAS-G12D) cells. The experiment is described as follows: pERK In Cell Western (ICW) assay (Method B), GP2D. It is filed as cell-based. The conditions noted are these: GP2d, 3 h, Table 4. Summed up: as §1

We go through 14 compounds from patent US12421254B2, “KRAS modulators and uses thereof” (Quanta Therapeutics, Inc., priority 2023, dated 2025).

Usually IC50 stands for the concentration that gives 50% inhibition.

GST-tagged KRAS-G12D (2-169), sequence (P01116 2-169 isoform P01116-2 G12D): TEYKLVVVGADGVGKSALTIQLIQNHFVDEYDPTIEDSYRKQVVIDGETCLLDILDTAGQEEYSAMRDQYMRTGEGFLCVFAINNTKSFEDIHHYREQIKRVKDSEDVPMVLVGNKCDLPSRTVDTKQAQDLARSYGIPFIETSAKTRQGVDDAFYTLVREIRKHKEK
GST-tagged KRAS-G12V (2-169), sequence (P01116 2-169 isoform P01116-2 G12V): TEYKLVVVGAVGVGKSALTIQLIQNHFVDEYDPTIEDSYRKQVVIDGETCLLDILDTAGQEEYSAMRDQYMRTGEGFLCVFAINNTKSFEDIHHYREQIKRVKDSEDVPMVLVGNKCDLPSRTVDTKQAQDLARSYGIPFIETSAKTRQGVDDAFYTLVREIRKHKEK

Take `C[C@H](c1cccnc1N)N(CCF)c1nc(OC[C@@]23CCCN2C[C@H](F)C3)nc(N2CC3(C2)SCc2sc(N)c(C#N)c23)n1` [Compound 180, 2′-amino-1-(4-(((R)-1-(2-aminopyridin-3-yl)ethyl)(2-fluoroethyl)amino)-6-(((2R,7aS)-2-fluorotetrahydro-1H-pyrrolizin-7a(5H)-yl)methoxy)-1,3,5-triazin-2-yl)-6′H-spiro[azetidine-3,4′-thieno[3,4-b]thiophene]-3′-carbonitrile]: the IC50 in experiment [1], in experiment [2], in experiment [3] and in experiment [4] was less than 10 nM each time.
Turning to `C[C@H](c1cccnc1N)N(CC(F)F)c1nc(OC[C@@]23CCCN2C[C@H](F)C3)nc(N2CC3(C2)SCc2sc(N)c(C#N)c23)n1` [Compound 183, 2-amino-1′-[4-[[(1R)-1-(2-amino-3-pyridyl)ethyl]-(2,2-difluoroethyl)amino]-6-[[(2R,8S)-2-fluoro-1,2,3,5,6,7-hexahydropyrrolizin-8-yl]methoxy]-1,3,5-triazin-2-yl]spiro[6H-thieno[3,4-b]thiophene-4,3′-azetidine]-3-carbonitrile], the IC50 in experiment [1], in experiment [2], in experiment [3] and in experiment [4] was less than 10 nM in each case.
With `N#Cc1c(N)sc2c1C1(CN(c3nc(OC[C@@]45CCCN4C[C@H](F)C5)nc(N4CC(=O)Nc5ncccc5C4)n3)C1)SC2` [Compound 189, 2-amino-1′-[4-[[(2R,8S)-2-fluoro-1,2,3,5,6,7-hexahydropyrrolizin-8-yl]methoxy]-6-(2-oxo-3,5-dihydro-1H-pyrido[2,3-e][1,4]diazepin-4-yl)-1,3,5-triazin-2-yl]spiro[6H-thieno[3,4-b]thiophene-4,3′-azetidine]-3-carbonitrile], the concentration for half-maximal inhibition (IC50) in experiment [1] is 1000 to 20000 nM; in experiment [2], 10 to 100 nM; in experiment [3], 100 to 1000 nM; in experiment [4], 1000 to 20000 nM.
On to `N#Cc1c(N)sc2c1C1(CN(c3nc(OCC4(CN5CCOCC5)CC4)nc(N4CCNC[C@H]4C(F)F)n3)C1)SC2` [Compound 190, (S)-2′-amino-1-(4-(2-(difluoromethyl)piperazin-1-yl)-6-((1-(morpholinomethyl)cyclopropyl)methoxy)-1,3,5-triazin-2-yl)-6′H-spiro[azetidine-3,4′-thieno[3,4-b]thiophene]-3′-carbonitrile], for which the IC50 in experiment [1] was 1000 to 20000 nM; in experiment [2] it was 10 to 100 nM; in experiment [3] it was less than 10 nM; in experiment [4], 100 to 1000 nM.
On the same counts, the results for `N#Cc1c(N)sc2c1C1(CN(c3nc(OC[C@@]45CCCN4C[C@H](F)C5)nc(N(CC(N)=O)Cc4cccnc4N)n3)C1)SC2` [Compound 194, 2-[[4-(2-amino-3-cyano-spiro[6H-thieno[3,4-b]thiophene-4,3′-azetidine]-1′-yl)-6-[[(2R,8S)-2-fluoro-1,2,3,5,6,7-hexahydropyrrolizin-8-yl]methoxy]-1,3,5-triazin-2-yl]-[(2-amino-3-pyridyl)methyl]amino]acetamide] are 1000 to 20000 nM, less than 10 nM, less than 10 nM and 1000 to 20000 nM.
On the same counts, the results for `C[C@H](c1cccnc1N)N(CC(F)F)c1nc(OC[C@@H]2CCCN2C)nc(N2CC3(C2)SCc2sc(N)c(C#N)c23)n1` [Compound 196, 2′-amino-1-(4-(((R)-1-(2-aminopyridin-3-yl)ethyl)(2,2-difluoroethyl)amino)-6-(((S)-1-methylpyrrolidin-2-yl)methoxy)-1,3,5-triazin-2-yl)-6′H-spiro[azetidine-3,4′-thieno[3,4-b]thiophene]-3′-carbonitrile] are less than 10 nM, less than 10 nM, less than 10 nM and 10 to 100 nM.
On the same counts, the results for `CCN(c1nc(OC[C@@]23CCCN2C[C@H](F)C3)nc(N2CC3(CCc4sc(N)c(C#N)c43)C2=O)n1)[C@H](C)c1cccnc1N` (stereo partly drawn) [Compound 201, 2-amino-1′-[4-[[(1R)-1-(2-amino-3-pyridyl)ethyl]-ethyl-amino]-6-[[(2R,8S)-2-fluoro-1,2,3,5,6,7-hexahydropyrrolizin-8-yl]methoxy]-1,3,5-triazin-2-yl]-2′-oxo-spiro[5,6-dihydrocyclopenta[b]thiophene-4,3′-azetidine]-3-carbonitrile] are 10 to 100 nM, less than 10 nM, less than 10 nM and 10 to 100 nM.
As to `CCN(c1nc(OCC2(COC)CCCN2)nc(N2CC3(C2)SCc2sc(N)c(C#N)c23)n1)[C@H](C)c1cccnc1N` (stereo partly drawn) [Compound 202, 2-amino-1′-[4-[[(1R)-1-(2-amino-3-pyridyl)ethyl]-ethyl-amino]-6-[[2-(methoxymethyl)pyrrolidin-2-yl]methoxy]-1,3,5-triazin-2-yl]spiro[6H-thieno[3,4-b]thiophene-4,3′-azetidine]-3-carbonitrile], the IC50 was 10 to 100 nM in experiment [1], less than 10 nM in experiment [2], less than 10 nM in experiment [3] and 10 to 100 nM in experiment [4].
In the case of `CCN(c1nc(OCC2(CN3C4CCC3COC4)CC2)nc(N2CC3(C2)SCc2sc(N)c(C#N)c23)n1)[C@H](C)c1cccnc1N` [Compound 203, 2-amino-1′-[4-[[(1R)-1-(2-amino-3-pyridyl)ethyl]-ethyl-amino]-6-[[1-(3-oxa-8-azabicyclo[3.2.1]octan-8-ylmethyl)cyclopropyl]methoxy]-1,3,5-triazin-2-yl]spiro[6H-thieno[3,4-b]thiophene-4,3′-azetidine]-3-carbonitrile], the IC50 in experiment [1] is 10 to 100 nM; in experiment [2], less than 10 nM; in experiment [3], less than 10 nM; in experiment [4], 10 to 100 nM.
Turning to `CCN(c1nc(OCC23CCC(COC2)N3)nc(N2CC3(C2)SCc2sc(N)c(C#N)c23)n1)[C@H](C)c1cccnc1N` (stereo partly drawn) [Compound 204, 1-(4-((3-oxa-8-azabicyclo[3.2.1]octan-1-yl)methoxy)-6-(((R)-1-(2-aminopyridin-3-yl)ethyl)(ethyl)amino)-1,3,5-triazin-2-yl)-2′-amino-6′H-spiro[azetidine-3,4′-thieno[3,4-b]thiophene]-3′-carbonitrile], the IC50 is 10 to 100 nM in experiment [1], less than 10 nM in experiment [2], 10 to 100 nM in experiment [3] and 100 to 1000 nM in experiment [4].
With `CCN(c1nc(OCC23CCCN2CCC3)nc(N2CC3(C2)SCc2sc(N)c(C#N)c23)n1)[C@H](C)c1cccnc1N` [Compound 206, (R)-2′-amino-1-(4-((1-(2-aminopyridin-3-yl)ethyl)(ethyl)amino)-6-((tetrahydro-1H-pyrrolizin-7a(5H)-yl)methoxy)-1,3,5-triazin-2-yl)-6′H-spiro[azetidine-3,4′-thieno[3,4-b]thiophene]-3′-carbonitrile], the IC50 in experiment [1] was 10 to 100 nM; in experiment [2], less than 10 nM; in experiment [3], less than 10 nM; in experiment [4] it was less than 10 nM.
In the case of `CCN(c1nc(OC[C@@H]2CCCN2C)nc(N2CC3(C2)SCc2sc(N)c(C#N)c23)n1)[C@H](C)c1cccnc1N` [Compound 207, 2-amino-1′-[4-[[(1R)-1-(2-amino-3-pyridyl)ethyl]-ethyl-amino]-6-[[(2S)-1-methylpyrrolidin-2-yl]methoxy]-1,3,5-triazin-2-yl]spiro[6H-thieno[3,4-b]thiophene-4,3′-azetidine]-3-carbonitrile], the IC50 in experiment [1] is 10 to 100 nM; in experiment [2], less than 10 nM; in experiment [3], less than 10 nM; in experiment [4] it was 10 to 100 nM.
Consider `CCN(c1nc(OC[C@@H]2C[C@@H](F)CN2)nc(N2CC3(C2)SCc2sc(N)c(C#N)c23)n1)[C@H](C)c1cccnc1N` [Compound 209, 2-amino-1′-[4-[[(1R)-1-(2-amino-3-pyridyl)ethyl]-ethyl-amino]-6-[[(2S,4R)-4-fluoropyrrolidin-2-yl]methoxy]-1,3,5-triazin-2-yl]spiro[6H-thieno[3,4-b]thiophene-4,3′-azetidine]-3-carbonitrile], for which the IC50 in experiment [1] is 10 to 100 nM; in experiment [2], less than 10 nM; in experiment [3] it was less than 10 nM; in experiment [4] it was less than 10 nM.
On to `CCN(c1nc(OC[C@]2(CO)CCCN2C)nc(N2CC3(C2)SCc2sc(N)c(C#N)c23)n1)[C@H](C)c1cccnc1N` [Compound 213, 2-amino-1′-[4-[[(1R)-1-(2-amino-3-pyridyl)ethyl]-ethyl-amino]-6-[[2-(hydroxymethyl)-1-methyl-pyrrolidin-2-yl]methoxy]-1,3,5-triazin-2-yl]spiro[6H-thieno[3,4-b]thiophene-4,3′-azetidine]-3-carbonitrile], for which the IC50 in experiment [1] is 10 to 100 nM; in experiment [2] it was less than 10 nM; in experiment [3], less than 10 nM; in experiment [4], 10 to 100 nM.
